Experimental data reported in US7396538B2, “Apparatus and method for delivery of mitomycin through an eluting biocompatible implantable medical device” (Endovascular Devices, Inc., priority 2002, dated 2008).
Converted amounts (≈) assume the structure as drawn.

Tested on: vascular smooth muscle cell
Assay: vascular smooth muscle cell (VSMC) proliferation study at varying concentrations of mitomycin C
Type: cell-based
Procedure: One example of a study was conducted to investigate the vascular smooth muscle cell proliferation (VSMC) from varying concentrations of the mitomycin C. […] A lower dosage of mitomycin C would still permit the advance of VSMC and contribute to increased restenosis and […]. Depending upon the observed biological effects from potentially cytotoxic local tissue levels, a higher concentration of mitomycin C may also still be sufficient.

Compound: CO[C@@]12[C@H](COC(N)=O)C3=C(C(=O)C(C)=C(N)C3=O)N1C[C@@H]1N[C@@H]12 [mitomycin C]
- IC50 (Rattus norvegicus, extrapolation from a logarithmic curve of VSMC inhibition at various dosages, read-out: concentration at which about 50% VSMC inhibition occurs): ~0.067 µg/mL (≈ 0.2 µM)
- VSMC inhibited (dose of about 0.334 micrograms per milliliter): about 66%
- VSMC inhibited (dose of about 25.1 micrograms per milliliter): about 98%
